Results from paper PMC7265341, “Quantifying CDK inhibitor selectivity in live cells” (Nature Communications, 2020).
Like-named read-outs stand apart in the source and are kept apart here.

How the values were obtained:
CDK19/Cyclin C = CDK19/Cyclin C (Homo sapiens, UniProt Q9BWU1); assay: NanoBRET live-cell target engagement, NanoLuc-CDK19/Cyclin C in HEK-293; details: CDK19/C; experiment 2
CDK3/Cyclin E1 = CDK3/Cyclin E1 (Homo sapiens, UniProt Q00526); assay: NanoBRET live-cell target engagement, CDK3-NanoLuc/Cyclin E1 in HEK-293; type: binding; details: CDK3/E1; for IC50: read-out: IC50
CDK15/Cyclin Y = CDK15/Cyclin Y (Homo sapiens, UniProt Q96Q40); assay: NanoBRET live-cell target engagement, NanoLuc-CDK15/Cyclin Y in HEK-293; type: binding
CDK18/Cyclin Y = CDK18/Cyclin Y (Homo sapiens, UniProt Q07002); assay: NanoBRET live-cell target engagement, CDK18-NanoLuc/Cyclin Y in HEK-293; type: binding; details: CDK18/Y; for IC50: read-out: IC50
CDK13/Cyclin K = CDK13/Cyclin K (Homo sapiens, UniProt Q14004); assay: NanoBRET live-cell target engagement, CDK13-NanoLuc/Cyclin K in HEK-293; type: binding; details: CDK13/K
CDK16/Cyclin Y = CDK16/Cyclin Y (Homo sapiens, UniProt Q00536); assay: NanoBRET live-cell target engagement, CDK16-NanoLuc/Cyclin Y in HEK-293; type: binding; details: CDK16/Y; for IC50: read-out: IC50
CDK11A/Cyclin L2 = biological target: T1, CDK11A/Cyclin L2 (Homo sapiens, UniProt Q9UQ88); assay: NanoBRET live-cell target engagement, CDK11A-NanoLuc/Cyclin L2 in HEK-293; type: binding; details: CDK11a/L2
T1 sequence (Q9UQ88 1-783): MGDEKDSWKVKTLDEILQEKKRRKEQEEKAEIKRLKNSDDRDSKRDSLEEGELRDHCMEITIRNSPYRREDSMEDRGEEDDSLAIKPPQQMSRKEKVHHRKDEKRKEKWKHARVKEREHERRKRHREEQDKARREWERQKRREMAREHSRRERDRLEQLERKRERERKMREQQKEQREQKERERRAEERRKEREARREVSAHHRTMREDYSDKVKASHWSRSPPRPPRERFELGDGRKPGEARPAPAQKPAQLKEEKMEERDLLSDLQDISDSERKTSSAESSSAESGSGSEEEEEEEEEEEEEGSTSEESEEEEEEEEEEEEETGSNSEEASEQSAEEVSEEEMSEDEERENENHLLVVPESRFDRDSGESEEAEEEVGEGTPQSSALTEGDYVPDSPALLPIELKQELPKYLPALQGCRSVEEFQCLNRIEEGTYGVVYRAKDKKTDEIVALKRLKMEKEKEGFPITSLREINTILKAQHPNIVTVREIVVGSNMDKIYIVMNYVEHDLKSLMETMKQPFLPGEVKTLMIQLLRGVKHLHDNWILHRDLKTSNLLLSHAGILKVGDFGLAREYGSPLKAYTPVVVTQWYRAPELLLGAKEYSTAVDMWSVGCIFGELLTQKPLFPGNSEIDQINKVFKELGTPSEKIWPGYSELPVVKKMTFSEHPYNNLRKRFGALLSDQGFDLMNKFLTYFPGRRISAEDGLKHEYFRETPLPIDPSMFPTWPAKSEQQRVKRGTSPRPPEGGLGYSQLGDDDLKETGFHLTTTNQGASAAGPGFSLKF

CDK17/Cyclin Y = CDK17/Cyclin Y (Homo sapiens, UniProt Q00537); assay: NanoBRET live-cell target engagement, CDK17-NanoLuc/Cyclin Y in HEK-293; type: binding; details: CDK17/Y; for IC50: read-out: IC50
CDK12/Cyclin K = CDK12/Cyclin K (Homo sapiens, UniProt Q9NYV4); assay: NanoBRET live-cell target engagement, CDK12-NanoLuc/Cyclin K in HEK-293; type: binding; details: CDK12/K
CDK11B/Cyclin L2 = CDK11B/Cyclin L2 (Homo sapiens, UniProt P21127); assay: NanoBRET live-cell target engagement, CDK11B-NanoLuc/Cyclin L2 in HEK-293; type: binding; details: CDK11b/L2; for IC50: read-out: IC50
Chain of CDK11B/Cyclin L2 (P21127 1-782 isoform P21127-2): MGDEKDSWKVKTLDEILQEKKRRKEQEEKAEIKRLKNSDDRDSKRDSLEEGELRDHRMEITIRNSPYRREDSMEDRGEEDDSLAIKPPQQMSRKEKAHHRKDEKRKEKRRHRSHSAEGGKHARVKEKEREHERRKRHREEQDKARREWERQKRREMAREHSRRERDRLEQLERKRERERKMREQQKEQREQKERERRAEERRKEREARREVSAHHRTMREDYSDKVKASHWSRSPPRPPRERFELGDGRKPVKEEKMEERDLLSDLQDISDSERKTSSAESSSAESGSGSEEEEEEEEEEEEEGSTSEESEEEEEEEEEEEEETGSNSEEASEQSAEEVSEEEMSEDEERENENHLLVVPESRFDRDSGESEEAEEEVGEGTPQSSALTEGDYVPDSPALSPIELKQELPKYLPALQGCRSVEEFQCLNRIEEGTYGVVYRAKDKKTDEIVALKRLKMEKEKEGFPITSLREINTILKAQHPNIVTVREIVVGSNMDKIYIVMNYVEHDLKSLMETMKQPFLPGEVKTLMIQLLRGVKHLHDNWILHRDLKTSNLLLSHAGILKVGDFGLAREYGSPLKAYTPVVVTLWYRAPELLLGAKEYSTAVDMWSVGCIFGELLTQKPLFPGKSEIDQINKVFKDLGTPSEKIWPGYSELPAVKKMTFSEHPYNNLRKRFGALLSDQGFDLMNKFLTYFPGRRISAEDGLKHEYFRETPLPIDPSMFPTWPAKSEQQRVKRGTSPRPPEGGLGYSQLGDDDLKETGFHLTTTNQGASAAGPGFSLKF

Chain of CDK13/Cyclin K (O75909 whole entry): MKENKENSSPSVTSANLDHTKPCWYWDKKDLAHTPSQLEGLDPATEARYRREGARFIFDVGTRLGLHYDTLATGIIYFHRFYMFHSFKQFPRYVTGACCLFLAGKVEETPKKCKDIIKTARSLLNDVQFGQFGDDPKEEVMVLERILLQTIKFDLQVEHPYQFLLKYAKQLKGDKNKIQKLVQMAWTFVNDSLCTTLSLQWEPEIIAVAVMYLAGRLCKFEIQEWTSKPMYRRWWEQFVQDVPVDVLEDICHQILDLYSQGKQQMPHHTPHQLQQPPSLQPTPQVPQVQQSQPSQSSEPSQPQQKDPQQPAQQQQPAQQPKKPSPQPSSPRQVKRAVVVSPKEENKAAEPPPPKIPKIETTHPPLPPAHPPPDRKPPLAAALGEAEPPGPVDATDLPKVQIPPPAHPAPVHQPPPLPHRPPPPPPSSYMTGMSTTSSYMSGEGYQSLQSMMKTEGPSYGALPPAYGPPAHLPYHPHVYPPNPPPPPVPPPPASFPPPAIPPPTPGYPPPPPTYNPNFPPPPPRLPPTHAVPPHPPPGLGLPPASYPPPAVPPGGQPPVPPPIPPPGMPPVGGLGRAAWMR
Chain of CDK13/Cyclin K (Q14004 other isoform, or with tags, fused parts or gaps): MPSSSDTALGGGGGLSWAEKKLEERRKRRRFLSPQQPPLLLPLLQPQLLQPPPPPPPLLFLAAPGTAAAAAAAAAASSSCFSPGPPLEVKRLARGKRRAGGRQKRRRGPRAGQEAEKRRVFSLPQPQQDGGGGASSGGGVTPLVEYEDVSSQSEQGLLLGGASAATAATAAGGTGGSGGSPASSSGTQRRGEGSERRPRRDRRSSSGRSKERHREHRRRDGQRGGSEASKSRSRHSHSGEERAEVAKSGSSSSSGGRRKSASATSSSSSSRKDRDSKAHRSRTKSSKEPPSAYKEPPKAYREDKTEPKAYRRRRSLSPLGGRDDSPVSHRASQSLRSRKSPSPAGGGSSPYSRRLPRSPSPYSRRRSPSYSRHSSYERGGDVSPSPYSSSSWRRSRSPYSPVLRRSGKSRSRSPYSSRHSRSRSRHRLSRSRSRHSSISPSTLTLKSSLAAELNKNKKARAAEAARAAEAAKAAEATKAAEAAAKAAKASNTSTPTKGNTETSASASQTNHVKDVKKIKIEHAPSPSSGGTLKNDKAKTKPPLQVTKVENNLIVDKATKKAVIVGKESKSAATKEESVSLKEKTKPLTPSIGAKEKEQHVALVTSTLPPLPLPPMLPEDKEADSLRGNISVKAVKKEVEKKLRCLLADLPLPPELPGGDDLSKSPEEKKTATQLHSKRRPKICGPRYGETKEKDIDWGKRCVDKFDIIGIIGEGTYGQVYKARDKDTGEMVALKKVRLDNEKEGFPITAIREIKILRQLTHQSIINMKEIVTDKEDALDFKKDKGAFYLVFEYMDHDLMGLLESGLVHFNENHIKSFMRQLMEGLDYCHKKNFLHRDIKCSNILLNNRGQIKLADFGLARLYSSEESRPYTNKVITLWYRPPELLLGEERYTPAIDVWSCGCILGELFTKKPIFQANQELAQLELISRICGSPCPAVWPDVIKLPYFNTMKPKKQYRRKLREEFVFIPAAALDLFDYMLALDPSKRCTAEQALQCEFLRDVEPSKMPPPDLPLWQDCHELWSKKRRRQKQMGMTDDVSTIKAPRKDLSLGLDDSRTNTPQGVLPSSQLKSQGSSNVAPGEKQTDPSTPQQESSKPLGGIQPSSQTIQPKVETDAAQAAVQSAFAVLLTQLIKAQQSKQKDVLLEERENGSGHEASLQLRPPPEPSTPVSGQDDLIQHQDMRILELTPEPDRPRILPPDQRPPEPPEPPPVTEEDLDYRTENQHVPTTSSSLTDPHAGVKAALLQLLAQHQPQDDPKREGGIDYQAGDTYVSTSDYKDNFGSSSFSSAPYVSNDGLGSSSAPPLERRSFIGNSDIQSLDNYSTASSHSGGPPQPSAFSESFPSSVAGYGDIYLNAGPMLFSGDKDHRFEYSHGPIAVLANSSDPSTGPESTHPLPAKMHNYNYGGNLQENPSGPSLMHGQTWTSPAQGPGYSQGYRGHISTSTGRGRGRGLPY
Chain of CDK16/Cyclin Y (Q00536 whole entry): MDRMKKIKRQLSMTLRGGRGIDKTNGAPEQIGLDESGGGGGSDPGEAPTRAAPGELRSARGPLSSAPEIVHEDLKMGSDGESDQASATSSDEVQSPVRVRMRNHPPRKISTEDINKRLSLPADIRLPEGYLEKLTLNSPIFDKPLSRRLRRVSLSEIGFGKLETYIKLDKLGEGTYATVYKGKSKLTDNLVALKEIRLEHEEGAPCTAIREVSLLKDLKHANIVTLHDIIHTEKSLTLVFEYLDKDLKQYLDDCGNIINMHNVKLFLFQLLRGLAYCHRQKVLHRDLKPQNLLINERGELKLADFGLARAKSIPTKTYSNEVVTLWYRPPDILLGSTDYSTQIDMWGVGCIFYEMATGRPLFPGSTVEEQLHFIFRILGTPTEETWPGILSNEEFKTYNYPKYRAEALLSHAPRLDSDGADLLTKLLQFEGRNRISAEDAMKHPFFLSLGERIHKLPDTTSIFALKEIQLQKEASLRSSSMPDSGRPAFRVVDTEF
Chain of CDK16/Cyclin Y (Q8ND76 whole entry partner): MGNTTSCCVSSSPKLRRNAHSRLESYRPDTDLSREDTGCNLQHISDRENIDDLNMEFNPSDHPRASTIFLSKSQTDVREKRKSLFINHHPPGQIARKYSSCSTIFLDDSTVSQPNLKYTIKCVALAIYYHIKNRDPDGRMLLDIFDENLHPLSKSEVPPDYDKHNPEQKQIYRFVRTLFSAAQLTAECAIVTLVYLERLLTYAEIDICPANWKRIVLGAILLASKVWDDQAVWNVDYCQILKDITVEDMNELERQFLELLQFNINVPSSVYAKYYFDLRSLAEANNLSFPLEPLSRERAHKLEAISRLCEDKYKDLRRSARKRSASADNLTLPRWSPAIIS
Chain of CDK3/Cyclin E1 (Q00526 whole entry): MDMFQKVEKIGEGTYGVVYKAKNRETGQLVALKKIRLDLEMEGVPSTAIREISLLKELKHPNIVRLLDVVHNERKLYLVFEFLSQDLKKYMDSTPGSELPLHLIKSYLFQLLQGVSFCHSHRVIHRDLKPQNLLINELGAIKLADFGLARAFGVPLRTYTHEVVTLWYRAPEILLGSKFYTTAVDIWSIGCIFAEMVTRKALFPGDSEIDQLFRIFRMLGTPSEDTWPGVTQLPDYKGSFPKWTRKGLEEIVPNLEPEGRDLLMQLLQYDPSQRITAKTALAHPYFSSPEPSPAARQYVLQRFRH
Chain of CDK3/Cyclin E1 (P24864 whole entry partner): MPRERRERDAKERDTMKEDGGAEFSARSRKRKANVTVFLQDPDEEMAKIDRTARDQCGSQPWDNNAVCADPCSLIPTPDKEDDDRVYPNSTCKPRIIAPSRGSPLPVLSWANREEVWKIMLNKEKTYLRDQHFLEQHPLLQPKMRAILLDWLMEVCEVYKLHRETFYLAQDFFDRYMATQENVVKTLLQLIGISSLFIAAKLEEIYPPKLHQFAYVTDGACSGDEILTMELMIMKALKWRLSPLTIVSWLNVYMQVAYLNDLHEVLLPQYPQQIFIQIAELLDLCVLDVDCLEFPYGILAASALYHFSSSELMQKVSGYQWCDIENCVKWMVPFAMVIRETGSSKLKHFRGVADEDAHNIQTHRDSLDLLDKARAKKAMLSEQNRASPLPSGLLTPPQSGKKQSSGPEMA
Chain of CDK18/Cyclin Y (Q07002 whole entry): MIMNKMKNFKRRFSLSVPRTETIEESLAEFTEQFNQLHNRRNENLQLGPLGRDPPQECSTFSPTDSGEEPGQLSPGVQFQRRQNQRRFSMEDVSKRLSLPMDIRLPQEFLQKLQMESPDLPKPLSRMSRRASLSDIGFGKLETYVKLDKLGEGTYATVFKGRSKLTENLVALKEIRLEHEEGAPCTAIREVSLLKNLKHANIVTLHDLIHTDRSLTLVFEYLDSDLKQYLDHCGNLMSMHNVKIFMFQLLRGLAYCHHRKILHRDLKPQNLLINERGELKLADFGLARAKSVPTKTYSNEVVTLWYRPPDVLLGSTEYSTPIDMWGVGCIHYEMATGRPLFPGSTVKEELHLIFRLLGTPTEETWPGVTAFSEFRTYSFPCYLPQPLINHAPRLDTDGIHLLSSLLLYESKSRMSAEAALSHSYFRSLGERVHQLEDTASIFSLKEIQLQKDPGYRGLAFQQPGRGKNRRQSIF
Chain of CDK18/Cyclin Y (Q8ND76 whole entry partner): as the sequence (Q8ND76 whole entry partner) above

CC(C)c1cnn2c(NCc3ccccc3-n3cccn3)nc(OC3CCCNC3)nc12 (stereo not shown) [LDC4297]
Inhibition at 10µM (%) (CDK19/Cyclin C): -9.6%
Inhibition at 10µM (%) (CDK3/Cyclin E1; average): 89.3%
IC50 (CDK3/Cyclin E1; average (± SEM where n=3)): 240 ± 70 nM
Inhibition at 10µM (%) (CDK3/Cyclin E1; experiment 1): 89.3%
IC50 (CDK3/Cyclin E1; experiment 1): 121 nM
Inhibition at 10µM (%) (CDK3/Cyclin E1; experiment 2): 89.4%
IC50 (CDK3/Cyclin E1; experiment 2): 370 nM
IC50 (CDK3/Cyclin E1; experiment 3): 234 nM
Inhibition at 10µM (%) (CDK15/Cyclin Y; CDK15/Y, average): 95.3%
IC50 (CDK15/Cyclin Y; CDK15/Y, average (± SEM where n=3), read-out: IC50): 220 ± 20 nM
Inhibition at 10µM (%) (CDK15/Cyclin Y; CDK15/Y, experiment 1): 95.2%
IC50 (CDK15/Cyclin Y; CDK15/Y, experiment 1, read-out: IC50): 220 nM
Inhibition at 10µM (%) (CDK15/Cyclin Y; CDK15/Y, experiment 2): 95.3%
IC50 (CDK15/Cyclin Y; CDK15/Y, experiment 2, read-out: IC50): 260 nM
IC50 (CDK15/Cyclin Y; CDK15/Y, experiment 3, read-out: IC50): 193 nM
IC50 (CDK15/Cyclin Y; live HEK-293, 2 h, mean ± S.E.M. (n=3) or mean (n=2), read-out: IC50 for CDK/cyclin complexes, CDK15/Y): 220 ± 20 nM
Inhibition at 10µM (%) (CDK18/Cyclin Y; average): 97.4%
IC50 (CDK18/Cyclin Y; average (± SEM where n=3)): 230 ± 30 nM
Inhibition at 10µM (%) (CDK18/Cyclin Y; experiment 1): 93.4%
IC50 (CDK18/Cyclin Y; experiment 1): 177 nM
Inhibition at 10µM (%) (CDK18/Cyclin Y; experiment 2): 101.4%
IC50 (CDK18/Cyclin Y; experiment 2): 260 nM
IC50 (CDK18/Cyclin Y; experiment 3): 262 nM
Inhibition at 10µM (%) (CDK13/Cyclin K; average): 24.9%
Inhibition at 10µM (%) (CDK13/Cyclin K; experiment 1): 20.0%
Inhibition at 10µM (%) (CDK13/Cyclin K; experiment 2): 29.8%
IC50 (CDK16/Cyclin Y; average (± SEM where n=3)): 400 ± 30 nM
Inhibition at 10µM (%) (CDK16/Cyclin Y; experiment 1): 87.3%
IC50 (CDK16/Cyclin Y; experiment 1): 332 nM
Inhibition at 10µM (%) (CDK16/Cyclin Y; experiment 2): 88.6%
IC50 (CDK16/Cyclin Y; experiment 2): 430 nM
IC50 (CDK16/Cyclin Y; experiment 3): 428 nM
Inhibition at 10µM (%) (CDK11A/Cyclin L2; average): 56.5%
Inhibition at 10µM (%) (CDK11A/Cyclin L2; experiment 1): 51.7%
Inhibition at 10µM (%) (CDK11A/Cyclin L2; experiment 2): 61.3%
Inhibition at 10µM (%) (CDK17/Cyclin Y; average): 90.8%
IC50 (CDK17/Cyclin Y; average (± SEM where n=3)): 200 ± 20 nM
Inhibition at 10µM (%) (CDK17/Cyclin Y; experiment 1): 89.8%
IC50 (CDK17/Cyclin Y; experiment 1): 194 nM
Inhibition at 10µM (%) (CDK17/Cyclin Y; experiment 2): 91.8%
IC50 (CDK17/Cyclin Y; experiment 2): 170 nM
IC50 (CDK17/Cyclin Y; experiment 3): 242 nM
Inhibition at 10µM (%) (CDK12/Cyclin K; average): 18.0%
Inhibition at 10µM (%) (CDK12/Cyclin K; experiment 1): 25.5%
Inhibition at 10µM (%) (CDK12/Cyclin K; experiment 2): 10.4%
Inhibition at 10µM (%) (CDK11B/Cyclin L2; average): 53.6%
IC50 (CDK11B/Cyclin L2; average (± SEM where n=3)): 760 ± 60 nM
Inhibition at 10µM (%) (CDK11B/Cyclin L2; experiment 1): 54.6%
IC50 (CDK11B/Cyclin L2; experiment 1): 876 nM
Inhibition at 10µM (%) (CDK11B/Cyclin L2; experiment 2): 52.6%
IC50 (CDK11B/Cyclin L2; experiment 2): 685 nM
IC50 (CDK11B/Cyclin L2; experiment 3): 732 nM
